Experimental data as given in patent US5622960A, “Topoisomerase II inhibitors and therapeutic uses therefor” (The United States of America as represented by the …, priority 1992, dated 1997).
“Also recorded” adds a separate entry of the source.

Tests used:
[1] = biological target: T1, purified murine leukemia top 2 (Mus musculus, UniProt Q01320); test: Sequencing of topoisomerase II cleavage sites (SV40 and c-myc DNA); type: biochemical; details: for top 2 cleavage sites induced (number/amount): SV40 and c-myc DNA, purified murine top 2
T1 construct: single 170 kDa band on silver-stained SDS-PAGE
Description: (§1) Chemicals, and enzymes: Azatoxin and its derivatives, as well as the demethyldesoxypodophyllotoxin (DMDP) and demethylepipodophyllotoxin (DMEP), were synthesized by conventional methods. The compounds m-AMSA and mitoxantrone were obtained from the Drug Synthesis and Chemistry Branch, National Cancer Institute, Bethesda, Md. The compounds VP-16 and VM-26 were obtained from Bristol-Myers Company (Wallingford, Conn.). Drug stock solutions were made in dimethylsulfoxide at 10 mM. Further dilutions were made in distilled water. Various other reagents, including simian virus 40 (SV40) and c-myc human DNA inserts in plasmid pBR322, restriction endonucleases, DNA topoisomerase I, T4 polynucleotide kinase, calf intestine phosphatase, agarose and polyacrylamide/bis, were purchased from Bethesda Research Laboratories (Gaithersburg, Md.), from the American Type Culture Collection (Rockville, Md.) or from New England Biolabs (Beverly, Mass.). [Gamma-^32 P]ATP was purchased from New England Nuclear Research Products (Boston, Mass.).
(§2) DNA topoisomerase II was purified from mouse leukemia L1210 cell nuclei as described, for example, by Pommier et al. (1985), supra, and was stored at -70° C. in 40% (v/v) glycerol, 0.35 M NaCl, 5 mM MgCl2, 1 mM KH2 PO4, 0.2 mM dithiothreitol and 0.1 mM phenylmethanesulfonyl fluoride (pH 6.4). The purified enzyme yielded a single 170 kDa band after silver staining of SDS-polyacrylamide gels, in accordance with the description of Pommier et al., Cancer Res. 46: 3075-81 (1986).
(§3) Preparation of end-labeled DNA fragments: DNA fragments were 5' end-labeled as described, for example, by Fesen and Pommier (1989), supra. Briefly, native DNA was first linearized with a restriction enzyme, […] then the 5'-DNA termini were dephosphorylated with calf alkaline phosphatase and labeled with [gamma-^32 P]ATP using T4 polynucleotide kinase. For double-strand breaks assays using HL-60 nuclear extract, SV40 DNA was digested with BclI endonuclease and labeled at both DNA termini. For sequencing experiments, SV40 and c-myc DNAs were first 5'-end labeled at the XhoII and XbaI restriction sites, respectively. Then, in order to generate uniquely 5'-end-labeled fragments, labeled DNA was subjected to a second enzyme digestion, PflMI for SV40, and EcoRI plus HindIII for c-myc DNA. The resulting DNA fragments were separated by agarose gel electrophoresis and isolated by electroelution. Purification by phenol-chloroform extraction and ethanol precipitation were included between each step and at the end of the labeling procedures, pursuant to Pommier et al., J. Molec. Biol. 222: 909-24 (1991).
Topoisomerase II-induced DNA cleavage reactions: DNA fragments were equilibrated with or without drug in 10 mM Tris-HCl, pH 7.5, 50 mM KCl, 5 mM MgCl2 0.1 mM EDTA, 1 mM ATP and 15 μg/ml bovine serum albumin for 5 minutes before addition of purified topoisomerase II (40 to 70 ng) or HL-60 nuclear extract in 20 μl final reaction volume. Reactions were stopped by adding sodium dodecyl sulfate (SDS) to a final concentration of 1% and proteinase K to 400 μg/ml, followed by incubation for 1 hour at 40° C.
For DNA sequence analysis, samples were precipitated with ethanol and resuspended in 2.5 μl loading buffer (80% formamide, 10 mM NaOH, 1 mM EDTA, 0.1% xylene cyanol and 0.1% bromophenol blue). Samples were heated to 90° C. and immediately loaded into DNA sequencing gels (6% polyacrylamide; 19:1, acrylamide:bis) containing 7M urea in (1×) TBE buffer. Electrophoresis was at 2500 V (60 W) for 4 hours. Gels were dried on 3M paper sheets and autoradiographed with Kodak XAR-2 film. See Pommier et al. (1991), supra.
Induction of top 2 cleavage by azatoxin was tested directly with the use of purified murine leukemia top 2. […] Sites of cleavage were also determined by DNA sequencing in the 5' flank of c-myc first intron.

tubulin = test: in vitro tubulin polymerization assay; type: biochemical
Description: (§4) Thus, azatoxin effectively prevents tubulin polymerization in vitro at concentrations in the range of 1 to 10 μM.

SV40 DNA = test: DNA unwinding (intercalation) assay with excess topoisomerase I; type: biochemical, simian virus 40
Description: To assess DNA unwinding, see Pommier et al., Nucleic Acids Res. 15: 6713-31(1987), the DNA was relaxed first by treatment for 15 minutes with top 1 (20 units), after which the test agent was added. These steps were carried out at 37° C. DNA-agent-top 1 mixtures were incubated for an additional 30 minutes and then stopped as described above. Samples were then subjected to agarose gel electrophoresis as described above.
This was also the case for the 2 azatoxin isomers, 8 and 10, and for the demethylepipodophyllotoxins, DMDP and DMEP. Similar results were obtained with supercoiled DNA.

[2] = tested on: top 2 (HL-60 nuclear extract); test: Induction of DNA double-strand breaks in SV40 DNA in presence of HL-60 nuclear extract; type: biochemical
Description: as §1
as §3, with “Purification by phenol-chloroform extraction and ethanol precipitation were included between each step and at the end of the labeling procedures, pursuant to Pommier et al., J. Molec. Biol. 222: 909-24 (1991).” left out
For agarose gel analysis, 3 μl (10×) loading buffer (0.3% bromophenol blue, 16% Ficoll, 10 mM Na2 HPO4) was added to each sample which was then heated at 65° C. for 1-2 minutes before loading into an agarose gel made in (1×) TBE (89 mM Tris, 89 mM boric acid, 2 mM EDTA, pH8), in accordance with Fesen & Pommier (1989), supra. […] The quantification of drug-induced DNA double-strand breaks in the presence of HL-60 nuclear extract was effected as described in the next paragraph.
Radioactive gels were counted in betascope 603 blot analyzer. […] Drug-induced cleavage was expressed as: [formula] where C. and T. are the counts for cleaved and total DNA, respectively, in presence of nuclear extract without drug.
Drug-induced DNA double-strand breaks were measured first in SV40 DNA in the presence of HL-60 nuclear extracts. […]

[3] = tested on: cells (protein-linked DNA breaks); test: protein-linked DNA breaks in cells; type: cell-based; details: compared to other top 2 inhibitors
top 2 = test: Inhibition of top 2-mediated relaxation of native SV40 DNA; type: biochemical, mouse
Description: as §2
Two different assays were conducted to illuminate the nature of azatoxin's effects vis-a-vis DNA relaxation. To study the inhibition of top 2 catalytic activity, topoisomerase reactions were performed with 0.4 μg native SV40 DNA in 30 μl reaction buffer for 30 minutes at 37° C. and stopped by adding SDS to a final concentration of 1% and proteinase K to 400 μg/ml, followed by incubation for 1 hour at 42° C., essentially as described by Fesen & Pommier (1989), supra. Agarose gel electrophoresis was performed in 1% gels made in Tris-Acetate-EDTA (TAE) buffer (40 mM Tris-Acetate, pH 7.6, 10 mM Na2 EDTA). Gels were run at 2 V/cm overnight, washed in water and then stained with 1 μM ethidium bromide for 45 minutes. After an additional 45 minutes destaining in 1 mM Mg2 SO4, the DNA was visualized under UV light and photographed with a Polaroid type 57 film.

[4] = tested on: panel of sixty human tumor cells lines; test: Growth inhibition / cytotoxicity against NCI panel of sixty human tumor cell lines; type: cell-based
Source text: FIG. 1 is a graphical representation of results generated by testing the inhibitory activity of an illustrative compound within the present invention against panel of tumor cell lines which is a standard of the National Cancer Institute Developmental Therapeutics Program [GI50: "50% growth inhibition"; TGI: "[…]"; LC50: "50% lethal concentration"].
See Yang et al., Cancer Res. 45:5872-76 (1985), and Liu (1989), supra, at 361-63. […] Pursuant to the convention of Paull et al., J. Nat'l Cancer Inst. […] See also Monks et al., J. Nat'l Cancer Inst. 83: 757-66 (1991), and Boyd, Principles & Practice of Oncology3:1-12 (1989).
as §4

T1 sequence (Q01320 whole entry): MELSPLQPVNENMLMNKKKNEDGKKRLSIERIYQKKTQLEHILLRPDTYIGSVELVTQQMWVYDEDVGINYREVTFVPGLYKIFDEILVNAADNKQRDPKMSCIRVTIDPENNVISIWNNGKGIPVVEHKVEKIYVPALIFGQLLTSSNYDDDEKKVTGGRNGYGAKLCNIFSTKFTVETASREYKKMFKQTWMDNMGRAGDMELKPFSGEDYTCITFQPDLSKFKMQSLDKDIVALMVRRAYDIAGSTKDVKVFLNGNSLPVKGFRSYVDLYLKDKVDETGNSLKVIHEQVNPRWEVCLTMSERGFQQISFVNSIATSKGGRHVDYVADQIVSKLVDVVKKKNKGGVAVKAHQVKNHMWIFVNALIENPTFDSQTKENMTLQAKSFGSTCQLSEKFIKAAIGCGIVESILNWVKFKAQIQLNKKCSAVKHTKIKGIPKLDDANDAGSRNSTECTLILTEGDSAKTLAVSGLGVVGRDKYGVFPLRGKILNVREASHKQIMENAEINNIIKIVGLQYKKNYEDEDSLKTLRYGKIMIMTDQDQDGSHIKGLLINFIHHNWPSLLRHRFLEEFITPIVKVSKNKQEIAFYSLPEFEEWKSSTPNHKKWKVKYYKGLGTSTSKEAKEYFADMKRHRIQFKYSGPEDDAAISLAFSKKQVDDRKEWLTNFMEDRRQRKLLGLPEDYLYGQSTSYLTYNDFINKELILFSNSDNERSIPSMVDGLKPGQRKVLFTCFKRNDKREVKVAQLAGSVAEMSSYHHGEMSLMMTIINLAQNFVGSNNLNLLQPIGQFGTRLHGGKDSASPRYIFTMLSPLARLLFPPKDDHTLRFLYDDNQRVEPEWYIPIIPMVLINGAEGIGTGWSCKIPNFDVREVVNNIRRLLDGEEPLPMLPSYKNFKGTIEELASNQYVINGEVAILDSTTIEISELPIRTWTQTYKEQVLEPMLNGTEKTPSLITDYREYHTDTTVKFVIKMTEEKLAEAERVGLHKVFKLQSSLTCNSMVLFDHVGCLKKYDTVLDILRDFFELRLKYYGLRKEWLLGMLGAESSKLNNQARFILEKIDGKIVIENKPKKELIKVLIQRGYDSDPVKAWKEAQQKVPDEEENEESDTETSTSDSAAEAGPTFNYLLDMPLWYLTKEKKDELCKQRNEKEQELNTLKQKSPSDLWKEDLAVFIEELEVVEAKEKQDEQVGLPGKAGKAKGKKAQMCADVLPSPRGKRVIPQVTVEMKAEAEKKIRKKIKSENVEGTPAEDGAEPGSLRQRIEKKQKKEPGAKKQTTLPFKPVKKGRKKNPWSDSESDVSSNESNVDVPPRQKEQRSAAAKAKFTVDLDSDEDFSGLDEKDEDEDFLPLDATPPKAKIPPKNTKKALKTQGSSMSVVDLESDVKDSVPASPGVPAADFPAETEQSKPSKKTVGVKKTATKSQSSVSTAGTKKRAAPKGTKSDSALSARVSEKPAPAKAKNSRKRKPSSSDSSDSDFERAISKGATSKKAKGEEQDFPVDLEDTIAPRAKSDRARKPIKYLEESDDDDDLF

## COc1cc([C@@H]2c3[nH]c4ccccc4c3C[C@H]3COC(=O)N32)cc(OC)c1O [Azatoxin, 5R, 11aS-3-One-5,4,11,11a-tetrahydro-5-(3,5-dimethoxy-4-hydroxyphenyl) -1H, 6H-oxazolo[3', 4': 1,6]pyrido[3,4-b]indole]
[1]
  top 2 cleavage potency (in words): potent top 2 inhibitor
  top 2 cleavage sites induced (number/amount): induced many cleavage sites both in the SV40 and the c-myc DNA fragments
[1]; listed as azatoxin
  top 2 cleavage sites induced (number/amount): induced more cleavage sites than mitoxantrone, m-AMSA, VM-26 or VP-16; also recorded: induces the largest number of top 2 cleavage sites both in SV40 and c-myc DNA
[1]; compared with other top 2 inhibitors
  top 2 cleavage pattern: cleavage pattern differing from those induced by other top 2 inhibitors
tubulin
  tubulin inhibition (in words): potent tubulin inhibitor
SV40 DNA
  DNA unwinding / intercalation conclusion: does not intercalate into DNA
SV40 DNA; relaxed SV40 DNA, excess topoisomerase I, concentrations as high as 1 mM
  DNA unwinding: did not induce detectable DNA unwinding even at drug concentrations as high as 1 mM
[2]; SV40 DNA, HL-60 nuclear extract, compared to VP-16
  DNA cleavage potency (in words): comparable to that of VP-16
[2]; above 10 μM
  cleavage above 10 μM, concentration dependence: cleavage occurred at many sites and was proportional to the logarithm of azatoxin concentration
[2]; up to 1 mM
  suppression of DNA cleavage at high drug concentrations: not suppressed at high drug concentrations (up to 1 mM)
[3]
  inducing protein-linked DNA breaks in cells: very active in inducing protein-linked DNA breaks in cells
Top 2
  production of linear / nicked DNA: produce a substantial amount of linear DNA without significant increased of nicked DNA
Top 2; 30 minutes, 37° C.
  inhibition of top 2-mediated relaxation: inhibits top 2-mediated relaxation of native SV40 DNA
[4]; FIG. 1 means graph
  cytotoxicity to tumor cells (in words): cytotoxicity of aratoxin to cells associated with disseminated cancers (leukemias) as well as several consolidated cancers (non-small cell lung and colon)
[4]; sixty cell lines: leukemia, melanoma, lung, colon, kidney, ovary, CNS
  growth inhibition of human tumor cell lines (in words): significant inhibitory activity
